Source: paper PMC2912373, “Low-Density Lipoprotein Receptor-Related Protein 1 (LRP1) Mediates Neuronal Aβ42 Uptake and Lysosomal Trafficking” (PLoS ONE, 2010)

Assays:
[1] = test system: N2a-mLRP4-Tless cells; experiment: FAM-Aβ42 uptake in LRP1 endocytosis-deficient cells, FACS; format: cell-based, mouse; details: 500 nM, 48 h, pronase-treated and untreated cells
From the text: To determine whether the endocytic function of LRP1 is required for Aβ42 internalization and accumulation, we first analyzed the effect of clathrin knockdown on the uptake of FAM-Aβ42 in N2a-mLRP4 cells. We decreased the expression of clathrin heavy chain by lentiviral-mediated delivery of small hairpin interfering RNA (shRNA) in N2a-mLRP4 cells and analyzed cell surface levels of mLRP4 by FACS. Lentiviral-mediated knockdown of clathrin heavy chain substantially decreases the protein levels of clathrin heavy chain and evokes a twofold-increase in the levels of cell surface mLRP4 in N2a cells (Fig. 4A), consistent with an impairment of clathrin-mediated endocytosis of this LRP1 minireceptor. […] As a control for specificity, we analyzed the uptake of a FAM-Aβ42 peptide that contained the same amino acid composition but in a scrambled sequence. […] To further confirm this, we specifically targeted the endocytic function of mLRP4 and analyzed the internalization of FAM-Aβ42 in LRP1 endocytosis-deficient cells. […]
Figure 4 LRP1 endocytosis is required for Aβ42 uptake and accumulation in N2a cells. […] The levels of cell surface and total pools of mLRP4 were determined by flow cytometric analyses with anti-HA antibody in non-permeabilized and saponin-treated cells, respectively. The surface-to-total ratio were calculated and plotted as fold-change to control-infected cells. […]

[2] = test system: N2a-mLRP4 cells; experiment: Co-localization of internalized FAM-Aβ42 with LysoTracker, confocal microscopy; format: cell-based, mouse
Protocol: To determine whether internalized Aβ42 is accumulated over time, we performed continuous feeding experiments of FAM-Aβ42 in N2a-pcDNA3 and N2a-mLRP4 cells. The steady-state levels and localization of Aβ42 were determined by flow cytometry and confocal microscopy, respectively (Fig. 2). Cells were incubated with 500 nM FAM-Aβ42 at 37°C for 24, 48 or 72 h and the content of fluorescence per cell was quantified by FACS and presented as a percentage of the levels in N2a-pcDNA3 at each time point (Fig. 2A). […] Therefore, we analyzed the subcellular localization of internalized FAM-Aβ42 by confocal microscopy in N2a cells treated as before and analyzed co-localization with lysosomes. For the visualization of acidic organelles, a brief incubation with LysoTracker Red at the end of the experiment was included (Fig. 2B). After 24 h of incubation, a small amount of cell-associated Aβ42 can be detected in N2a-mLRP4 cells.
Figure 2 Increased accumulation of intracellular Aβ42 within lysosomes in LRP1 minireceptor-expressing cells. A, increased Aβ42 accumulation in LRP1 minireceptor-expressing cells. N2a-mLRP4 and N2a-pcDNA3 cells were treated with 500 nM of FAM-Aβ42 at 37°C for 24, 48 and 72 h, and steady-state levels of intracellular Aβ42 were determined by flow cytometric analyses of pronase-treated cells as described in the Experimental Procedures. […] B, increased co-localization of intracellular Aβ42 and lysosomes in N2a-mLRP4 cells. N2a-pcDNA3 and N2a-mLRP4 cells were grown in glass chamber slides and treated with 500 nM of FAM-Aβ42 at 37°C for 24, 48 and 72 h. Lysosomes were labeled with LysoTracker 30 min before the end of each incubation. Cells were then fixed and analyzed by confocal microscopy.
For the imaging experiments, stable N2a cells were plated into an 8-well chambered coverglass at 16,250 cells/cm^2 with one independent chambered coverglass for each time point, and cells were grown overnight. […] Cells were then fixed and analyzed by a confocal laser scanning microscope (Fluoview 500, Olympus) using a 40x objective lens. […]

FAM-Aβ42: FAM-Aβ42 peptide (23526) from Anaspec; amyloid-β 42 with carboxyfluorescein at the N-terminal region
FAM-Aβ42 uptake in N2a-mLRP4-Tless compared to N2a-pcDNA3 cells [1]: similar
co-localization of intracellular accumulated Aβ42 with LysoTracker ([2]; 500 nM FAM-Aβ42, 37°C, 24, 48 and 72 h, N2a-mLRP4, increased over time): highly co-localized with LysoTracker
localization of Aβ42 into LysoTracker-positive organelles ([2]; 500 nM FAM-Aβ42, 37°C, 48 and 72 h, both N2a-pcDNA3 and N2a-mLRP4 cells): increased localization
localization of cell-associated FAM-Aβ42 into acidic organelles (LysoTracker) ([2]; 500 nM FAM-Aβ42, 37°C, 24 h, 100 nM LysoTracker Red last 30 min, N2a-mLRP4): does not localize into acidic organelles
